Key:
hER-β = target: T1, hER-β (Homo sapiens, UniProt Q92731); assay: In vitro estrogenic activity assay, stable HEK cell line with hER-β and ERE-luciferase reporter; assay type: cell-based
T1 construct: expressed in transfected cells
Description: (§1) Briefly, cells were plated in 96-well tissue culture plates (NUNC, Life Technologies, Breda, The Netherlands) in medium consisting of phenol red–free Dulbecco’s modified Eagle’s medium/F12 (1:1) medium containing 3 × 10^−8 M selenite, 10 μg/mL transferrin, 0.2% (wt/vol) bovine serum albumin, and 5% (wt/vol) dextran-coated charcoal-stripped fetal calf serum. […] Luciferase activity of 25 μL cell lysate was measured with the Luclite Luciferase Reporter gene assay kit (Perkin-Elmer, Brussels, Belgium) according to the manufacturer’s instructions using 25 μL Luclite solution on a Topcount liquid scintillation counter (Perkin-Elmer).
(§2) The in vitro dose–response activation curves obtained with the stable cell lines were fitted using the sigmoidal fit {y = a0 + a1/1 + exp[–(x – a2)/a3]} in Slidewrite Plus for Windows (version 3.0; BIS, Ridderkerk, The Netherlands), which determines the fitting coefficients by an iterative process minimizing the c2 merit function (least squares criterion). […] The cell line data shown are the average of at least two independent experiments with each experimental point performed in triplicate. Data are shown as a percentage of maximal induction by E2.

[1] = parameters: method as in Takahashi and Oishi 2000; conditions: pregnant rats; ref Takahashi and Oishi 2000; cited from earlier work
estrogen receptors (ERs) [2] = assay: Ex vivo luciferase measurement in lysates of transgenic embryos exposed in utero; parameters: species or system mouse
Description: (§3) To obtain transgenic embryos, heterozygote transgenic males from line INS3 were mated with wild-type females (F1 from C57Bl/6J × CBA). Heterozygote males were used so that every litter would also contain wild type embryos, which could serve as an internal negative control. Females were checked daily for the presence of a vaginal plug, and when a plug was detected, that day was designated 0.5 day postcoitum (dpc).
(§4) Animal experiments were performed with approval of the Netherlands Academy of Arts and Sciences Animal Ethics Committee. The IVIS imaging experiments were done with additional approval of the Animal Ethics Committee of NV Organon.
When embryos were isolated from the amniotic membranes, we kept tails separated and stored at –20°C for subsequent DNA isolation and polymerase chain reaction for presence of the transgene, as described previously ([Legler et al. 2000]). Only transgenic embryos were used for further luciferase measurement. Subsequently, embryos were thawed on ice and lysis buffer [1% (vol/vol) Triton X-100, 2.5 × 10^−2 M glycylglycine, 1.5 × 10^−2 M MgSO4, 4 × 10^−3 M EGTA, and 1 × 10^−3 M dithiothreitol (DTT)] was added. Next, samples were sonicated, the lysate centrifuged, and the supernatant collected. […] Luciferase activity was corrected for protein content as measured with the Bradford assay.
(§5) We considered one litter as a statistical unit rather than one embryo because we assumed that all embryos in one litter were subject to the same variation of the compound injection and placental transfer. Therefore, the average ± SEM per litter was calculated, and these were then averaged to express the luciferase activity per group. All data were log-transformed and tested for normality with the Shapiro-Wilks test using SPSS 12.0 (SPSS, Chicago, IL, USA).

human and mouse ER-α = tested on: human and mouse ER-α; parameters: method as in Matthews et al. 2000; conditions: ref Matthews et al. 2000; cited from earlier work
uterine wet weight = conditions: cited from earlier work
estrogen receptors (ERs) [3] = assay: In vivo (in utero) luciferase measurement with IVIS imaging in transgenic ERE-luciferase embryos; parameters: species or system mouse; conditions: 10,000 μg/kg, 8 hr after exposure
Description: as §3, §4, §5

ER = tested on: ER; parameters: method as in Nagel et al. (2001); conditions: 1 mg/kg; ref Nagel et al. (2001); cited from earlier work
human ER-α (hER-α) = target: T2, human ER-α (hER-α) (Homo sapiens, UniProt P03372); assay: In vitro estrogenic activity assay, stable HEK cell line with hER-α and ERE-luciferase reporter; assay type: cell-based
T2 construct: expressed in transfected cells
T2 sequence (P03372 1-595): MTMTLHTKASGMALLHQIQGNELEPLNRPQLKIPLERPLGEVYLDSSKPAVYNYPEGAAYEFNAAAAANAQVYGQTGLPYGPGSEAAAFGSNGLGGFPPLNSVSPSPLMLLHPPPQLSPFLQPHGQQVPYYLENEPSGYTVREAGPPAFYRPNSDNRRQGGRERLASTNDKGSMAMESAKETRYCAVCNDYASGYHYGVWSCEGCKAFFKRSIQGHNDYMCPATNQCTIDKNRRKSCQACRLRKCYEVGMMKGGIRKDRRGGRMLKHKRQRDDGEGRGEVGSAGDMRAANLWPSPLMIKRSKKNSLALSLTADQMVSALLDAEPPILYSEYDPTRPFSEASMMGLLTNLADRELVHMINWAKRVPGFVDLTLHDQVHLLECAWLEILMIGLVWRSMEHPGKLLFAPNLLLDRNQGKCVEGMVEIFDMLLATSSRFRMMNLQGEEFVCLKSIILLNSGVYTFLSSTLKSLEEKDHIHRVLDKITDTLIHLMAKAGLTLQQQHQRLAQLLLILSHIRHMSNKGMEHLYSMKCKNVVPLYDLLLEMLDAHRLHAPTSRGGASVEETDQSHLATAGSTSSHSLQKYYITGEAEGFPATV
Description: as §1, §2

[4] = pregnant mice, 100 mg/kg subcutaneously; ref Domoradzki et al. 2003; Shin et al. 2002; Uchida et al. 2002; cited from earlier work
[5] = parameters: method as in McLachlan 1977; conditions: 14C-DES injected in pregnant mice; ref McLachlan 1977; cited from earlier work
estrogen receptors (ERs) [6] = conditions: adult transgenic animals; ref Lemmen et al. 2004; cited from earlier work

T1 sequence (Q92731 whole entry): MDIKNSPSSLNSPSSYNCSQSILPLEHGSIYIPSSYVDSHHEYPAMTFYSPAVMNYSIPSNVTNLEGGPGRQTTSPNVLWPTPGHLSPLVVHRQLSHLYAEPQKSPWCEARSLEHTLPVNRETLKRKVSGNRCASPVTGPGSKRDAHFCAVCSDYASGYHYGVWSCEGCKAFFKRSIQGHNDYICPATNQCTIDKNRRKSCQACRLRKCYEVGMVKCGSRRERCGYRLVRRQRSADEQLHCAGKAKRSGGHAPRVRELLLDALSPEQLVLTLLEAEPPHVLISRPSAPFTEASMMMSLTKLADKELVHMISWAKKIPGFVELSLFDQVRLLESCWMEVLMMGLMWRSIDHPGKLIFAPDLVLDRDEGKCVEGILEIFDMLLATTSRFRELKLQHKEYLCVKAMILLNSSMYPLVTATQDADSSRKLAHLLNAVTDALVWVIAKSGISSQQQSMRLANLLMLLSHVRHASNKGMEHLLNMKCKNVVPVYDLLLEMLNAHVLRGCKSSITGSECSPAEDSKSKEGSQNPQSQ

In the case of `CC(C)(c1ccc(O)cc1)c1ccc(O)cc1` [BPA, bisphenol A], the “times less active than DES toward ER-β transactivation” value (hER-β) is given as 1,400 times, the “time of peak concentration in fetal circulation” value [1] is given as 15 to 20 min and the “luciferase activity versus oil-exposed controls, embryo lysates” value (estrogen receptors (ERs) [2]; 1,000 μg/kg, 8 hr after exposure) is given as “significantly higher”. The “luciferase activity versus oil-exposed controls, embryo lysates” value (estrogen receptors (ERs) [2]; 10,000 μg/kg, 8 hr after exposure) was “significantly higher”, the “dose at which in utero luciferase activation was significant from oil-exposed controls” value (estrogen receptors (ERs) [2]; 8 hr after exposure) was 1 mg/kg and the “luciferase activity versus oil-exposed animals, embryo lysates” value (estrogen receptors (ERs) [2]; 24 hr after exposure, BPA 10–10,000 μg/kg (Figure 2)) was “no difference”. The “affinity of human versus mouse ER-α” value (human and mouse ER-α) was “same affinity”, the “uterine wet weight response” value (uterine wet weight; 1 mg/kg, ref Nagel et al. (2001)) was “did not induce” and the uterotrophic response (uterine wet weight; CD-1 mice, 100 mg/kg, ref Markey et al. 2001) was “induced”. The “activity in the uterine wet weight assay” value (uterine wet weight; CFLP mice, 0.5 mg/mouse (~ 16.7 mg/kg), ref Coldham et al. 1997) was “inactive”, the “toxicity in the uterine wet weight assay” value (uterine wet weight; mouse, in vivo, 167 mg/kg) was “toxic” and the “luciferase activity versus oil-exposed animals, IVIS” value (estrogen receptors (ERs) [3]) was “not statistically significant”. The “ER transcriptional activity in the adult uterus” value (ER) was “significant increase”, the “times less active than DES in activating ER-α” value (human ER-α (hER-α)) was 5,000 times and the “time after exposure at which detected in fetal sera, liver, brain, uterus and testes” value [4] was 30 min.

For `CC/C(=C(/CC)c1ccc(O)cc1)c1ccc(O)cc1` [DES, diethylstilbestrol, reference compound], the “time of peak fetal plasma levels” value [5] is listed as 2 h and the “affinity of human versus mouse ER-α” value (human and mouse ER-α) is listed as “same affinity”.

For `C[C@]12CC[C@@H]3c4ccc(O)cc4CC[C@H]3[C@@H]1CC[C@@H]2O` [E2, 17β-estradiol], the “time of peak luciferase activity after exposure” value (estrogen receptors (ERs) [6]) is given as 8 h.

Reference: article PMC1247619 (Environmental Health Perspectives, 2004)
